Assay results reported in patent US11787825B2 (priority 2021, dated 2023).
≈ marks a conversion by molar mass, not a printed value. Read-outs that look alike come from different tables or passages of the source.

Columns and labels:
physchem = conditions: 25 °C, thermodynamic from solid
[1] = 0.1N HCL, 1.0% DMSO, 24-hour incubation at ambient temperature, maximum theoretical compound concentration 100 μM
[2] = 1×PBS buffer (pH 7.4), 1.0% DMSO, 24-hour incubation at ambient temperature, maximum theoretical compound concentration 100 μM
[3] = fed state simulated intestinal fluid (FeSSIF), fessif
[4] = fasted state simulated intestinal fluid (FaSSIF), fassif

| SMILES | pH 2 solubility [1] | pH 7 solubility [2] | solubility (physchem; [3]) | pH 2 solubility (pH 2) | pH 7 solubility (pH 7.4) | solubility (physchem; fassif) | solubility (physchem; fessif) | solubility (physchem; [4]) | pH 7 solubility |
| --- | --- | --- | --- | --- | --- | --- | --- | --- | --- |
| CN(C)CC(=O)N(c1nn(CC(F)(F)F)c2c(-c3ccc(C#CC(C)(C)S(C)(=O)=O)nc3[C@H](Cc3cc(F)cc(F)c3)NC(=O)Cn3nc(C(F)(F)F)c4c3C(F)(F)[C@@H]3C[C@H]43)ccc(Cl)c12)S(C)(=O)=O [Compound 4, N-(4-chloro-7-(2-((S)-1-(2-((3bS,4aR)-5,5-difluoro-3-(trifluoromethyl)-3b,4,4a,5-tetrahydro-1H-cyclopropa[3,4]cyclopenta[1,2-c]pyrazol-1-yl)acetamido)-2-(3,5-difluorophenyl)ethyl)-6-(3-methyl-3-(methylsulfonyl)but-1-yn-1-yl)pyridin-3-yl)-1-(2,2,2-trifluoroethyl)-1H-indazol-3-yl)-2-(dimethylamino)-N-(methylsulfonyl)acetamide] | 42 μM | 1 μM | 6 µg/mL (≈ 5.7 µM) | – | – | – | – | – | – |
| CC(C)(C#Cc1ccc(-c2ccc(Cl)c3c(N(C(=O)Cc4ccccc4OP(=O)(O)O)S(C)(=O)=O)nn(CC(F)(F)F)c23)c([C@H](Cc2cc(F)cc(F)c2)NC(=O)Cn2nc(C(F)(F)F)c3c2C(F)(F)[C@@H]2C[C@H]32)n1)S(C)(=O)=O [Compound 45, 2-(2-(N-(4-chloro-7-(2-((S)-1-(2-((3bS,4aR)-5,5-difluoro-3-(trifluoromethyl)-3b,4,4a,5-tetrahydro-1H-cyclopropa[3,4]cyclopenta[1,2-c]pyrazol-1-yl)acetamido)-2-(3,5-difluorophenyl)ethyl)-6-(3-methyl-3-(methylsulfonyl)but-1-yn-1-yl)pyridin-3-yl)-1-(2,2,2-trifluoroethyl)-1H-indazol-3-yl)methylsulfonamido)-2-oxoethyl)phenyl dihydrogen phosphate] | – | – | – | 1/1 μM | 1/1 μM | 456 µg/mL | 129 µg/mL | – | – |
| CC(C)(C#Cc1ccc(-c2ccc(Cl)c3c(N(C(=O)CCCOP(=O)(O)O)S(C)(=O)=O)nn(CC(F)(F)F)c23)c([C@H](Cc2cc(F)cc(F)c2)NC(=O)Cn2nc(C(F)(F)F)c3c2C(F)(F)[C@@H]2C[C@H]32)n1)S(C)(=O)=O [Compound 27, 4-(N-(4-chloro-7-(2-((S)-1-(2-((3bS,4aR)-5,5-difluoro-3-(trifluoromethyl)-3b,4,4a,5-tetrahydro-1H-cyclopropa[3,4]cyclopenta[1,2-c]pyrazol-1-yl)acetamido)-2-(3,5-difluorophenyl)ethyl)-6-(3-methyl-3-(methylsulfonyl)but-1-yn-1-yl)pyridin-3-yl)-1-(2,2,2-trifluoroethyl)-1H-indazol-3-yl)methylsulfonamido)-4-oxobutyl dihydrogen phosphate] | 1 μM | 26 μM | 450 µg/mL | – | – | – | – | 190 µg/mL | – |
| CC(C)(C#Cc1ccc(-c2ccc(Cl)c3c(N(C(=O)/C=C/C(=O)O)S(C)(=O)=O)nn(CC(F)(F)F)c23)c([C@H](Cc2cc(F)cc(F)c2)NC(=O)Cn2nc(C(F)(F)F)c3c2C(F)(F)[C@@H]2C[C@H]32)n1)S(C)(=O)=O [Compound 1, (E)-4-(N-(4-chloro-7-(2-((S)-1-(2-((3bS,4aR)-5,5-difluoro-3-(trifluoromethyl)-3b,4,4a,5-tetrahydro-1H-cyclopropa[3,4]cyclopenta[1,2-c]pyrazol-1-yl)acetamido)-2-(3,5-difluorophenyl)ethyl)-6-(3-methyl-3-(methylsulfonyl)but-1-yn-1-yl)pyridin-3-yl)-1-(2,2,2-trifluoroethyl)-1H-indazol-3-yl)methylsulfonamido)-4-oxobut-2-enoic acid] | – | – | 45 µg/mL (≈ 42.2 µM) | 1/86 μM | – | – | – | 321 µg/mL (≈ 301 µM) | 1/86 μM |
| CC(C)(C#Cc1ccc(-c2ccc(Cl)c3c(N(C(=O)CCC(CC(=O)O)NC(=O)OCOP(=O)(O)O)S(C)(=O)=O)nn(CC(F)(F)F)c23)c([C@H](Cc2cc(F)cc(F)c2)NC(=O)Cn2nc(C(F)(F)F)c3c2C(F)(F)[C@@H]2C[C@H]32)n1)S(C)(=O)=O (stereo in doubt) [Compound 34, (R)-6-(N-(4-chloro-7-(2-((S)-1-(2-((3bS,4aR)-5,5-difluoro-3-(trifluoromethyl)-3b,4,4a,5-tetrahydro-1H-cyclopropa[3,4]cyclopenta[1,2-c]pyrazol-1-yl)acetamido)-2-(3,5-difluorophenyl)ethyl)-6-(3-methyl-3-(methylsulfonyl)but-1-yn-1-yl)pyridin-3-yl)-1-(2,2,2-trifluoroethyl)-1H-indazol-3-yl)methylsulfonamido)-6-oxo-3-((((phosphonooxy)methoxy)carbonyl)amino)hexanoic acid] | 3 μM | 75 μM | 454 µg/mL (≈ 359 µM) | – | – | – | – | > 2840 µg/mL | – |
| CC(C)(C#Cc1ccc(-c2ccc(Cl)c3c(N(C(=O)/C=C/C(=O)N[C@@H](CC(=O)O)C(=O)O)S(C)(=O)=O)nn(CC(F)(F)F)c23)c([C@H](Cc2cc(F)cc(F)c2)NC(=O)Cn2nc(C(F)(F)F)c3c2C(F)(F)[C@@H]2C[C@H]32)n1)S(C)(=O)=O [Compound 2, ((E)-4-(N-(4-chloro-7-(2-((S)-1-(2-((3bS,4aR)-5,5-difluoro-3-(trifluoromethyl)-3b,4,4a,5-tetrahydro-1H-cyclopropa[3,4]cyclopenta[1,2-c]pyrazolyl)acetamido)-2-(3,5-difluorophenyl)ethyl)-6-(3-methyl-3-(methylsulfonyl)but-1-ynyl)pyridin-3-yl)-1-(2,2,2-trifluoroethyl)-1H-indazol-3-yl)methylsulfonamido)-4-oxobutenoyl)-L-aspartic acid] | – | – | 655 µg/mL (≈ 554 µM) | 1/95 μM | – | – | – | 810 µg/mL (≈ 686 µM) | 1/95 μM |
| Cc1cc(P(=O)(O)O)cc(OP(=O)(O)O)c1C(C)(C)CC(=O)N(c1nn(CC(F)(F)F)c2c(-c3ccc(C#CC(C)(C)S(C)(=O)=O)nc3[C@H](Cc3cc(F)cc(F)c3)NC(=O)Cn3nc(C(F)(F)F)c4c3C(F)(F)[C@@H]3C[C@H]43)ccc(Cl)c12)S(C)(=O)=O [Compound 57, (4-(4-(N-(4-Chloro-7-(2-((S)-1-(2-((3bS,4aR)-5,5-difluoro-3-(trifluoromethyl)-3b,4,4a,5-tetrahydro-111-cyclopropa[3,4]cyclopenta[1,2-c]pyrazol-1-yl)acetamido)-2-(3,5-difluorophenyl)ethyl)-6-(3-methyl-3-(methylsulfonyl)but-1-yn-1-yl)pyridin-3-yl)-1-(2,2,2-trifluoroethyl)-1H-indazol-3-yl)methylsulfonamido)-2-methyl-4-oxobutan-2-yl)-3-methyl-5-(phosphonooxy)phenyl)phosphonic acid] | – | – | – | 1/100 μM | 1/100 μM | 7300 µg/mL (≈ 5540 µM) | – | – | – |
| C[C@H](NC(=O)OCOP(=O)(O)O)C(=O)N(c1nn(CC(F)(F)F)c2c(-c3ccc(C#CC(C)(C)S(C)(=O)=O)nc3[C@H](Cc3cc(F)cc(F)c3)NC(=O)Cn3nc(C(F)(F)F)c4c3C(F)(F)[C@@H]3C[C@H]43)ccc(Cl)c12)S(C)(=O)=O [Compound 36, (phosphonooxy)methyl ((S)-1-(N-(4-chloro-7-(2-((S)-1-(2-((3bS,4aR)-5,5-difluoro-3-(trifluoromethyl)-3b,4,4a,5-tetrahydrocyclopropa[3,4]cyclopenta[1,2-c]pyrazol-1-yl)acetamido)-2-(3,5-difluorophenyl)ethyl)-6-(3-methyl-3-(methylsulfonyl)but-1-yn-1-yl)pyridin-3-yl)-1-(2,2,2-trifluoroethyl)-1H-indazolyl)methylsulfonamido)-1-oxopropan-2-yl)carbamate] | 3 μM | 100 μM | – | – | – | 661 µg/mL (≈ 554 µM) | – | – | – |
| CC(C)(C#Cc1ccc(-c2ccc(Cl)c3c(N(C(=O)CC4(CN(CC(=O)O)C(=O)OCOP(=O)(O)O)CC4)S(C)(=O)=O)nn(CC(F)(F)F)c23)c([C@H](Cc2cc(F)cc(F)c2)NC(=O)Cn2nc(C(F)(F)F)c3c2C(F)(F)[C@@H]2C[C@H]32)n1)S(C)(=O)=O [Compound 39] | 1 μM | 87 μM | 3870 µg/mL (≈ 3000 µM) | – | – | – | – | 1190 µg/mL (≈ 921 µM) | – |
| Cc1cc(CC(=O)NCC(=O)O)c(C(C)(C)CC(=O)N(c2nn(CC(F)(F)F)c3c(-c4ccc(C#CC(C)(C)S(C)(=O)=O)nc4[C@H](Cc4cc(F)cc(F)c4)NC(=O)Cn4nc(C(F)(F)F)c5c4C(F)(F)[C@@H]4C[C@H]54)ccc(Cl)c23)S(C)(=O)=O)c(OP(=O)(O)O)c1 [Compound 63, (2-(2-(4-(N-(4-chloro-7-(2-((S)-1-(2-((3bS,4aR)-5,5-difluoro-3-(trifluoromethyl)-3b,4,4a,5-tetrahydro-1H-cyclopropa[3,4]cyclopenta[1,2-c]pyrazol-1-yl)acetamido)-2-(3,5-difluorophenyl)ethyl)-6-(3-methyl-3-(methylsulfonyl)but-1-yn-1-yl)pyridin-3-yl)-1-(2,2,2-trifluoroethyl)-1H-indazol-3-yl)methylsulfonamido)-2-methyl-4-oxobutan-2-yl)-5-methyl-3-(phosphonooxy)phenyl)acetyl)glycine] | – | – | – | 1/85 μM | 1/85 μM | – | – | – | – |
| CNCC(=O)N(c1nn(CC(F)(F)F)c2c(-c3ccc(C#CC(C)(C)S(C)(=O)=O)nc3[C@H](Cc3cc(F)cc(F)c3)NC(=O)Cn3nc(C(F)(F)F)c4c3C(F)(F)[C@@H]3C[C@H]43)ccc(Cl)c12)S(C)(=O)=O [Compound 19, (N-(4-chloro-7-(2-((S)-1-(2-((3bS,4aR)-5,5-difluoro (trifluoromethyl)-3b,4,4a,5-tetrahydro-1H-cyclopropa[3,4]cyclopenta[1,2-c]pyrazolyl)acetamido)-2-(3,5-difluorophenyl)ethyl)-6-(3-methyl-3-(methylsulfonyl)but-1-ynyl)pyridin-3-yl)-1-(2,2,2-trifluoroethyl)-1H-indazol-3-yl)-2-(methylamino)-N-(methylsulfonyl)acetamide)] | 37 μM | 6 μM | – | – | – | – | – | – | – |
